Reference: publication PMC6370995, “Phase I study of PF‐04895162, a Kv7 channel opener, reveals unexpected hepatotoxicity in healthy subjects, but not rats or monkeys: clinical evidence of disrupted bile acid homeostasis” (Pharmacology Research & Perspectives, 2019)

Assays:
[1] = system: human hepatocytes; test: human hepatocyte imaging assay (cell loss); format: cell-based; conditions: 48 hours; three assessments in two human hepatocyte lots (LBN and HU4165)
Text: […]

[2] = system: Sprague-Dawley rats; test: 28-day Oral Gavage Toxicity and Toxicokinetic Study in Rats; format: in vivo
Method: In the longer-term studies Sprague-Dawley rats were administered PF-04895162 once daily for 28 days or 6 months at doses up to 100 mg/kg/day. […] The drug was well absorbed into the systemic circulation of male and female rats following oral administration for 6 months.

[3] = system: cynomolgus monkeys; test: Escalating Dose Range-Finding and Maximum Tolerated Dose Study in Cynomolgus Monkeys; format: in vivo, cynomolgus monkey
[4] = system: palmitate fatty acid oxidation; test: mitochondrial fatty acid oxidation inhibition using palmitate; format: biochemical; conditions: N = 2; read-out: IC50 for impaired palmitate fatty acid oxidation
Text: […]

[5] = 7-Day Oral Toxicity Study in Rats (twice daily dosing, GLP); format: in vivo; conditions: rat, in vivo, Day 7, 400 mg/kg/day
[6] = system: Sprague-Dawley rats; test: as above; format: in vivo
[7] = target: T1, MDR3 (Homo sapiens, UniProt P21439); test: MDR3 inhibition/activation in human hepatocytes (d9-choline to d9-phosphatidylcholine); format: cell-based; conditions: 200 μmol/L, N = 3
T1 construct: biotransformation of d 9‐choline to d 9‐phosphatidylcholine in human hepatocytes; host or cells: human hepatocytes
T1 sequence (P21439 whole entry): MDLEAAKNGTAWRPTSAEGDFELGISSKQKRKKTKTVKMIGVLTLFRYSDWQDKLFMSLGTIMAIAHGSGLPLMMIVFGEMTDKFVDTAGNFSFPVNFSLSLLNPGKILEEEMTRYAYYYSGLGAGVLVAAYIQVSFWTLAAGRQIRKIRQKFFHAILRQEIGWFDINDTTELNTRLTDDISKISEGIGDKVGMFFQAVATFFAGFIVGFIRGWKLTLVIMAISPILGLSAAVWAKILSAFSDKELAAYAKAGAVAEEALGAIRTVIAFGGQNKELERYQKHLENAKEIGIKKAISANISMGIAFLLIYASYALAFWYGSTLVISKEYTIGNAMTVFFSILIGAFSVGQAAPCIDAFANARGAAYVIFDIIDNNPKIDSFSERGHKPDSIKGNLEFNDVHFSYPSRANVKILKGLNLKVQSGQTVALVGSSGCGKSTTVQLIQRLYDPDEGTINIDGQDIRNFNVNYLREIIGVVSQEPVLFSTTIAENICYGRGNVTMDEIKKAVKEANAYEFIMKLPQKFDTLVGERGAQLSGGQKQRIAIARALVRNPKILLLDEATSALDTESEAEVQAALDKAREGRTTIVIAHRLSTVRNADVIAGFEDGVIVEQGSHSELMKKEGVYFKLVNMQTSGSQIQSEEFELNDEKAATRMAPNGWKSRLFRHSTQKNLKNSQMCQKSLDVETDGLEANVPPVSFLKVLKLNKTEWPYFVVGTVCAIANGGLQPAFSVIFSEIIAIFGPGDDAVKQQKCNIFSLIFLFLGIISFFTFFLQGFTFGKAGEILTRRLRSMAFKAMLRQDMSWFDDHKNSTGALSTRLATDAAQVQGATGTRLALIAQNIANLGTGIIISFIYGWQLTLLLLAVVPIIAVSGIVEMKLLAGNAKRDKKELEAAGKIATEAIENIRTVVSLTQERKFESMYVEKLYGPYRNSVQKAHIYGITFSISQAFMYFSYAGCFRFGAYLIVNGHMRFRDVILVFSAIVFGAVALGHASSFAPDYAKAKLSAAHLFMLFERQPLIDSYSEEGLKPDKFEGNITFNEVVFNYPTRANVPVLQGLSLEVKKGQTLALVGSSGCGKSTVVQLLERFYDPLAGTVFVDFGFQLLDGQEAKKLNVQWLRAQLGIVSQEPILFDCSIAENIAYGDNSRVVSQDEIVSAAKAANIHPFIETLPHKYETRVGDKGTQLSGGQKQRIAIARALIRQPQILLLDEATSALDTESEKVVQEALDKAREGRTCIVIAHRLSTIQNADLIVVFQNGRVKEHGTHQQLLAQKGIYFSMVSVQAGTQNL
Text: […]

[8] = THLE 72 hour cytotoxicity assay based on ATP depletion; format: cell-based; conditions: human, THLE cells, after 72 hours
Text: […]

[9] = target: T2, BSEP (Homo sapiens, UniProt O95342); test: BSEP inhibition in vesicles using tritium labeled taurocholic acid; format: biochemical
T2 construct: host or cells: Hi5 insect cell membrane vesicles
T2 sequence (O95342 whole entry): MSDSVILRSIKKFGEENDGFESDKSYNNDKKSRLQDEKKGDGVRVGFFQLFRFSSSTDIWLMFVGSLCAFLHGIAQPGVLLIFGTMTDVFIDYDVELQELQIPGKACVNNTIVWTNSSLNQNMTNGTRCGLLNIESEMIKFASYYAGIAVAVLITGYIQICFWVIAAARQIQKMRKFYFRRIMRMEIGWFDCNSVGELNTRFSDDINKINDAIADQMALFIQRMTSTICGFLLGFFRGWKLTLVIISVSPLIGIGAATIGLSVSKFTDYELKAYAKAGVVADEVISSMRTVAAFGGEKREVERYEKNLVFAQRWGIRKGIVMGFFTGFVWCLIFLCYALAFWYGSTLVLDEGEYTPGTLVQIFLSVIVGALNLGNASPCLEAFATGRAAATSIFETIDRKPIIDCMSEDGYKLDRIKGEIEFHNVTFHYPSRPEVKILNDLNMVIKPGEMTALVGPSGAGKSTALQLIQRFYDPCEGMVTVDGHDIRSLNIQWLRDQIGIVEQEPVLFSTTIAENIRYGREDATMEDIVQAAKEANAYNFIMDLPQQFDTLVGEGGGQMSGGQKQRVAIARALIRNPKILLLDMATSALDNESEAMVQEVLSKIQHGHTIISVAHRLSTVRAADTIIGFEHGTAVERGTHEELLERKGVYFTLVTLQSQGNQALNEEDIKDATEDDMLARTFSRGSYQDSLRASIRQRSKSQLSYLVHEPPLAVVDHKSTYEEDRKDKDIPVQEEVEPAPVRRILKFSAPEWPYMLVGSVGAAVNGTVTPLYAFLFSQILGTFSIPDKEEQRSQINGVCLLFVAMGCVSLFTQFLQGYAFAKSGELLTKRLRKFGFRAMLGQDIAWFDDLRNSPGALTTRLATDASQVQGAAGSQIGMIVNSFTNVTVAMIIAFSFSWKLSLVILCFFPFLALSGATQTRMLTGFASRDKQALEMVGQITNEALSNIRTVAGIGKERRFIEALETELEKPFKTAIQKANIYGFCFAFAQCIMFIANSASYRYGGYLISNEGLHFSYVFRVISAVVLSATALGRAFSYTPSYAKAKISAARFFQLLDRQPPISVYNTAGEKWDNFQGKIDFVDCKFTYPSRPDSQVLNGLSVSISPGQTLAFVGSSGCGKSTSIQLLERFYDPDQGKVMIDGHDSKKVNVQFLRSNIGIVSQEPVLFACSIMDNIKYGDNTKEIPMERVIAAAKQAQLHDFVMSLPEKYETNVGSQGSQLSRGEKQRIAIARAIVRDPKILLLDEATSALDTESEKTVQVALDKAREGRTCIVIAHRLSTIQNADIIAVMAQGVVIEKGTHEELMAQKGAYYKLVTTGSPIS
Text: […]

[10] = system: cynomolgus monkeys; test: 28-day Nasogastric Intubation Toxicity Study in Cynomolgus Monkeys; format: in vivo, cynomolgus monkey
Method: A 28-day nasogastric toxicity study was conducted in cynomolgus monkeys at up to 100 mg/kg/day and a 9-month oral toxicity study with a 3-month interim sacrifice was conducted in cynomolgus monkeys at up to 100 mg/kg/day.

[11] = system: cynomolgus monkeys; test: 7-Day Oral Toxicity Study in Monkeys; format: in vivo, cynomolgus monkey; conditions: for liver weight: males and females
Method: (§1) Male and female cynomolgus monkeys were administered PF-04895162 twice daily for 7 days at approximately 12 hours apart, with the dose split equally between the 2 daily doses. The highest administered does was 200 mg/kg/day.

[12] = 7-Day Oral Toxicity Study in Monkeys; format: in vivo, cynomolgus monkey; conditions: both sexes, cynomolgus monkey, plasma, oral, Day 7, males and females, read-out: total Cmax
Method: as §1

[13] = 100, 200, and 400 mg/kg/day, 7 days
[14] = twice daily for 7 days, up to 400 mg/kg/day

O=C(Cc1ccc(F)cc1)Nn1c(C2CC2)nc2cc(F)ccc2c1=O [PF‐04895162, N‐(2‐cyclopropyl‐7‐fluoro‐4‐oxoquinazolin‐3(4H)‐yl)‐2‐(4‐fluorophenyl)ethanamide]
AC50 [1]: > 125 µM | few feces, incidence ([2]; 100 mg/kg, females): 6/15 | head tremors, incidence ([2]; 100 mg/kg, females): 2/15 | rough haircoat, incidence ([2]; 100 mg/kg, females): 4/15 | clear oral discharge, incidence ([2]; 100 mg/kg, males): 2/15 | microscopic findings in the liver ([2]; 100 mg/kg/day for 28 days): No treatment-related microscopic findings | body temperature ([2]; 3, 30, 100 mg/kg, 28 days): no apparent treatment-related effect | clinical pathology data ([2]; 3, 30, 100 mg/kg, 28 days): no apparent treatment-related effects | gross pathology and mean organ weights ([2]; 3, 30, 100 mg/kg, 28 days): no obvious treatment-related gross pathology findings or mean organ weight changes | mortality ([2]; 3, 30, 100 mg/kg, 28 days): no mortality | liver weights ([2]; 28 days, up to 100 mg/kg/day): Increased liver weights | Day 28 mean body weight ([2]; females, 3 mg/kg): 101 % of control | Weeks 1-4 food consumption ([2]; females, 3 mg/kg): 101 % of control | Mean liver weight ([2]; females, 3 mg/kg (cell cut, unit not shown)): 111 | Day 28 mean body weight ([2]; females, 30 mg/kg): 97 % of control | Weeks 1-4 food consumption ([2]; females, 30 mg/kg): 97 % of control | Mean liver weight ([2]; females, 30 mg/kg (cell cut, unit not shown)): 106 | Day 28 mean body weight ([2]; females, 100 mg/kg): 95 % of control | Weeks 1-4 food consumption ([2]; females, 100 mg/kg): 88 % of control | Day 28 mean body weight ([2]; males, 3 mg/kg): 100 % of the mean control weight | Weeks 1-4 food consumption ([2]; males, 3 mg/kg): 99 % of the mean control food consumption | Day 28 mean body weight ([2]; males, 30 mg/kg): 92 % of the mean control weight | Weeks 1-4 food consumption ([2]; males, 30 mg/kg): 95 % of the mean control food consumption | Day 28 mean body weight ([2]; males, 100 mg/kg): 90 % of the mean control weight | Weeks 1-4 food consumption ([2]; males, 100 mg/kg): 87 % of the mean control food consumption | transaminases ([2]; once daily for 28 days, up to 100 mg/kg/day): No transaminase elevations | gross findings at necropsy, organ weights, liver histopathology, Dosing Phase 1 ([3]; 25, 50, 100 and 200 mg/kg): no other apparent effects of treatment | clinical signs, Dosing Phase 2 ([3]; morning following dosing at 200 mg/kg/day, all 4 treated monkeys): hyperactivity, ataxia, tremors, and dilated pupils | clinical observation, Dosing Phase 1 ([3]; single escalating NG doses, most prevalently at 100 and 200 mg/kg): Post-dosing vomitus | IC50 [4]: ~70 µM | Cmax ([5]; female, read-out: Total Cmax (mean), female rats): 10300 ng/mL | Cmax ([5]; male, read-out: Total Cmax (mean), male rats): 7920 ng/mL | Clinical findings and body temperature [6, 13]: test article-induced hypothermic condition | hematology parameters [6, 13]: no adverse test article-related effects | mortality [6, 13]: All main study animals survived to study termination | body weight and food consumption ([6]; treated males and females): Decreases in body weight and food consumption | ALT [6, 14]: did not reproduce ALT findings | liver weight [6, 14]: increased liver weight in female rats | effect on MDR3 activity [7]: stimulation | IC50 at 72 h [8]: ~192 µM | IC50 ([9]; Hi5 vesicles, N = 4, geometric mean): 106 µM | ratio of systemic Cmax to BSEP vesicle IC50 ([9]; initially (single dose)): 0.12 x | vomitus, incidence ([10]; 30 mg/kg/day, females): 1/5 | vomitus, incidence ([10]; 30 mg/kg/day, males): 1/5 | parent AUC24 at the end of the study ([10]; 100 mg/kg/day, 28 days): mild autoinduction of metabolism | ataxia, incidence ([10]; 100 mg/kg/day, females): 2/5 | body tremors, incidence ([10]; 100 mg/kg/day, females): 3/5 | dilated pupils, incidence ([10]; 100 mg/kg/day, females): 4/5 | hunched posture, incidence ([10]; 100 mg/kg/day, females): 3/5 | squinting, incidence ([10]; 100 mg/kg/day, females): 1/5 | vomitus, incidence ([10]; 100 mg/kg/day, females): 2/5 | ataxia, incidence ([10]; 100 mg/kg/day, males): 2/5 | body tremors, incidence ([10]; 100 mg/kg/day, males): 4/5 | dilated pupils, incidence ([10]; 100 mg/kg/day, males): 4/5 | hunched posture, incidence ([10]; 100 mg/kg/day, males): 3/5 | hypoactivity, incidence ([10]; 100 mg/kg/day, males): 2/5 | vomitus, incidence ([10]; 100 mg/kg/day, males): 1/5 | survival ([10]; 3, 10, 30, 100 mg/kg/day, 28 days): All animals survived to their scheduled termination | mean body (rectal) temperatures ([10]; 30 and 100 mg/kg/day, 1, 2, and/or 4 hours post-dose, first day of treatment): larger decreases in mean body (rectal) temperatures | hematology, coagulation, clinical chemistry, macroscopic and microscopic pathology ([10]; 28 days, up to 100 mg/kg/day): No effect of treatment | Treatment-related clinical findings ([11]; 150 and/or 200 mg/kg/day): decreased activity, ataxia, inappetence, stereotypy (hyper-reactivity, rigidity, jumping), tremors, loss of limb function, rapid eye movement, and eyelid partially/completely closed | thymus gland weight ([11]; females, 150 and 200 mg/kg/day): Decreased thymus gland weight | liver weight ([11]; 150 and 200 mg/kg/day): Increased liver weight | liver weight ([11]; 150 and 200 mg/kg/day, listed as ICA-105665): increased liver weight | brain weight ([11]; males, 150 and 200 mg/kg/day): dose-dependent increases in brain weight | clinical chemistry (liver effects) ([11]; twice daily for 7 days, up to 200 mg/kg/day): no clinical chemistry changes suggestive of liver effects | Cmax ([12]; 150 mg/kg/day): > 27000 ng/mL | Cmax ([12]; 200 mg/kg/day): > 24000 ng/mL
